Here are results for four compounds from paper PMC11271341 (Clinical Pharmacokinetics, 2024).

Read-outs that look alike come from different tables or passages of the source.

In one series the test system is OCT2/MATE1. Particulars: in vitro; pazopanib as OCT1/MATE1 inhibitor (so in the source); cited from earlier work.
A short description of series [1]: Metformin trough plasma concentration. Type of series: in vivo, human. Particulars: n = 18.
For series [2], the system named is multidrug and toxin extrusion protein 1 (MATE1). Particulars: in vitro studies; cited from earlier work.
Series [3] relates to organic cation transporter 2 (OCT2). As to conditions: in vitro studies; cited from earlier work.
For series [4] the following is noted: exceeds the glomerular filtration rate; cited from earlier work.
Series [5] in a line: Trifluridine plasma pharmacokinetics, three-phase crossover study in patients. Format: in vivo. As to conditions: human, oral, median Tmax, range over the three phases, phases A, B and C.
For series [6] the following is noted: cited from earlier work.

Take `N.N.[Cl][Pt][Cl]` [cisplatin]: in the series on OCT2/MATE1, the “change in cisplatin exposure when combined with pazopanib” value was “significant in vitro increase”.
For `CN(C)C(=N)N=C(N)N` [metformin], the “geometric mean Ctrough” value in series [1] (metformin 500 mg b.i.d. in combination with trifluridine/tipiracil) amounted to 240 ng/mL; in series [1] (metformin monotherapy (day 14)) it was 150 ng/mL.
For the compound `N=C1CCCN1Cc1nc(O)nc(O)c1Cl` [tipiracil], the “interaction with MATE1” value in series [2] is “substrate and inhibitor”. Moreover, in series [3], the “interaction with OCT2” value was “substrate and inhibitor”. Further, the renal clearance in series [4] is reported as ~ 300 mL/min.
As to `O=c1[nH]c(=O)n([C@H]2C[C@H](O)[C@@H](CO)O2)cc1C(F)(F)F` [trifluridine], in series [5], the Tmax lay in the range of 46.8 to 60 min. Further, the “increase of area under the curve vs normal renal function (≥ 90 mL/min)” value in series [6] (mild renal impairment (creatinine clearance between 60 and 89 mL/min)) is 31%; in series [6] (moderate renal impairment (between 30 and 59 mL/min)), 43%.

Usually Tmax stands for the time from dosing to the highest level.
